# Experiments:
# NCX1 [1] = molecular target: T1, NCX1 (Canis lupus familiaris, UniProt P23685); assay: 45Ca2+ radiotracer fluxes (efflux/influx) in BHK-NCX1 cells; type: cell-based
# T1 construct: expressed in transfected cells
# Procedure: (§1) The activity of NCX was established by means of three different subclones of baby hamsted kidney (BHK) cells that were stably transfected with one of each NCX isoforms, named BHK-NCX1, BHK-NCX2 and BHK-NCX3. These cell lines were grown on plastic dishes in a mix of DMEM and Ham's F12 media (1:1) (Gibco, Invitrogen, MI, Italy) supplemented with 5% fetal bovine serum, 100 U/ml penicillin, and 100 µg/ml streptomycin (Sigma, St. Louis, Missouri, USA). Cells were cultured in a humidified 5% CO2 atmosphere and at the temperature of 37°C.
# The activity of the Na^+/Ca^2+ exchanger was measured by means of ^45Ca^2+ radiotracer variations in the cytoplasm of cells exposed to a protocol stimulating the forward or the reverse mode of the antiporter. The BHK cells expressing each mutated or non-mutated NCX isoform were cultured in 12-well dishes and incubated in 145 mM NaCl for 10 minutes and then in a medium containing only 145 mM N-Methyl D-glucamine (NMDG) and 10 µM of ^45Ca^2+. This rapid substitution of the medium from a high level of Na^+ to another one without Na^+ allow the ^45Ca^2+ influx (reverse mode). Before the medium substitution cells was incubated with 1 mM ouabain, a Na^+/K^+ pump inhibitor, and 10 µM monensin, a ionophore for extracellular Na^+. After 30 seconds incubation, cells were washed with an ice-cold solution containing 2 mM La^3+ to stop ^45Ca^2+ uptake. The medium was removed and cells were subsequently lysed with 0.1 N NaOH and aliquots were taken to determine radioactivity and protein content.
# In order to measure NCX activity in the forward mode, cells were firstly loaded with ^45Ca^2+ and subsequently exposed to a chemical protocol to stimulate the efflux of the radiotracer in the extracellular medium. In particular, cells were loaded with ^45Ca^2+ by using a solution containing 1 µM ionomycin, 145 mM Na^+ and ^45Ca^2+. Next, cells were exposed to a Ca^2+-free solution containing 2 mM EGTA. One µM thapsigargin, a Ca^2+-ATPase inhibitor, was present in both solutions in order to prevent ^45Ca^2+ influx in intracellular organelles. After 60 second, cells were lysed with […] NaOH and aliquots were taken to determine cytoplasmatic radioactivity.
# Cells were incubated for 30 minutes with different neurounina-1 concentrations.
# NCX1 [2] = molecular target: T1, NCX1; assay: Patch-clamp electrophysiology (whole-cell NCX currents), BHK-NCX1 cells; type: cell-based; settings: 10 nM, 10 minutes
# Procedure: To further investigate the effects of this compound on the Na^+/Ca^2+ exchanger activity, we performed electrophysiological experiments on BHK cells stably transfected with each of NCX isoforms (named BHK-NCX1, BHK-NCX2 and BHK-NCX3).
# as §1
# NCX currents (/NCX) was recorded from BHK wild-type and BHK stably transfected cells with NCX1, NCX2, and NCX3 and all each mutated of single isoforrms by patch-clamp technique in whole-cell configuration. […] Data were acquired and analyzed by use of pClamp software (version 9.0, Molecular Devices). In brief, /NCX was recorded starting from a holding potential of -60 mV up to a short-step depolarization at +60 mV (60 ms) (He et al., 2003; Xiao et al., 2004). […] The current recorded in the descending portion of the ramp (from +60 to -120 mV) was used to plot the current-voltage (I-V) relation curve. […]
# T1 sequence (P23685 33-970): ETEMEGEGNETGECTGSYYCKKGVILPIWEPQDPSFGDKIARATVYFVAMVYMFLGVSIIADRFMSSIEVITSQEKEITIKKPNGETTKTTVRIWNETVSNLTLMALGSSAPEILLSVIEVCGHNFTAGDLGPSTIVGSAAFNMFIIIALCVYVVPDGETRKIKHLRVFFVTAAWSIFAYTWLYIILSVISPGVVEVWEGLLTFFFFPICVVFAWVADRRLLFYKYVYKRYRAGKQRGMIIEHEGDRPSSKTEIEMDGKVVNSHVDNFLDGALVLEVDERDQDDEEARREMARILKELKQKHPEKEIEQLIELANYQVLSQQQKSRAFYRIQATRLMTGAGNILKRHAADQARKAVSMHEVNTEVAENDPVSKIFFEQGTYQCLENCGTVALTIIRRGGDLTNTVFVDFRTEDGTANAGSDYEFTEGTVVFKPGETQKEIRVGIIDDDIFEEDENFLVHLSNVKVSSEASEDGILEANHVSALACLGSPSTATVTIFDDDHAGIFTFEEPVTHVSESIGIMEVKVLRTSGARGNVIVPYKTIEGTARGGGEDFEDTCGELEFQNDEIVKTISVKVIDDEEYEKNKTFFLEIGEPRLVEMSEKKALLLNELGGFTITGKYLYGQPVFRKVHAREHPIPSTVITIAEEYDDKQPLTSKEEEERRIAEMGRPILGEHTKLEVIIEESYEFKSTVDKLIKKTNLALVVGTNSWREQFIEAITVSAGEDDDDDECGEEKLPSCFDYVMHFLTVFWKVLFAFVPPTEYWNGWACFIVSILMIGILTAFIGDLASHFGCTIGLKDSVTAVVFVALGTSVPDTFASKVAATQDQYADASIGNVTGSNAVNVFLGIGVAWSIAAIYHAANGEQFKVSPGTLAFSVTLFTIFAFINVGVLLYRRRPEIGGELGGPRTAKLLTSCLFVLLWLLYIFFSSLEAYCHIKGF
smiles,measurement,setting,value
"O=C1CN=C(c2ccccc2)c2cc([N+](=O)[O-])ccc2N1CN1CCCC1 [neurounina-1, 7-nitro-5-phenyl-1-(pyrrolidin-1-ylmethyl)-1H-benzo[e][1,4]diazepin-2(3H)-one]",increase of forward mode of NCX1 activity,"NCX1 [1]; 45Ca2+ radiotracer, forward mode",70%
same,increase of reverse mode NCX1 activity,"NCX1 [1]; 45Ca2+ radiotracer, reverse mode",40%
same,EC50,"NCX1 [1]; EC50 NCX1, reverse mode, 45Ca2+ radiotracer, reverse mode",1.1 nM
same,EC50,"NCX1 [1]; EC50 for NCX1, forward mode, 45Ca2+ radiotracer, forward mode",1.4 nM
same,EC50,"NCX1 [1]; EC50 su NCX1, from the functional assays (summary)",1 to 2 nM
same,NCX1 activity,"NCX1 [1]; forward and reverse mode, patch clamp, Fura-2 microfluorimetry and 45Ca2+ fluxes (summary)","increases, in a dose-dependent manner"
same,increased forward and reverse activity of NCX1,NCX1 [2],60%

# — patent EP2646421B1, “7-NITRO-5-PHENYL-1-(PYRROLIDIN-1-YLMETHYL)-1H-BENZO[E][1,4]DIAZEPIN-2(3H)-ONE AND OTHER BENZODIAZEPINE DERIVATIVES” (Pignataro, Giuseppe, priority 2010, dated 2012)
